In patent US9073835B2, “N-acylthiourea and N-acylurea inhibitors of the Hedgehog protein signalling pathway” (Centre National De La Recherche Scientifique, priority 2008, dated 2015):

Tests used:
[1] = tested on: Hedgehog protein signaling pathway; assay: Inhibition of SAG-induced alkaline phosphatase activity (differentiation) in C3H10T1/2 cells; type: cell-based; details: for inhibition at 10 µM: C3H 10T1/2, 10 μM test compound
Protocol: The effect of compounds with formula (I) as claimed in the invention on inhibition of the Hedgehog protein signaling pathway was determined by analysis of differentiation in the pluripotent fibroblast cell line C3H10T1/2 after activation of this pathway in these cells using a synthetic activator: SAG.
The compounds with formula (I) to be tested were dissolved in dimethylsulfoxide to a concentration of 10 mM, then stored at a temperature of −20° C. until use.
The pluripotent fibroblast cell line C3H10T1/2 (ATCC) was cultivated under the conditions recommended by the ATCC. These cells were activated using 0.1 μM of SAG, employing the methods described by Chen et al., Proc. Natl. Acad. Sci. USA, 2002, 99, 14071 and Frank-Kamenetsky et al., J. Biol., 2002, 1, 10.
Activation with SAG provokes differentiation of the cell line and allows them to express alkaline phosphatase. It is then possible to measure the activity of the Hedgehog protein signaling pathway by measuring the alkaline phosphatase activity.
The C3H10T1/2 cells were plated onto 96-well plates at a density of […], 24 hours before addition of the test compounds in a concentration of 1 nM to 30 μM and in the presence of 0.1 μM of SAG using DMEM supplemented with 10% fetal calf serum as the culture medium. The tests were carried out in quadruplicate. The plates were then incubated for 5-6 days at a temperature of 37° C. in an atmosphere of 5% CO2. The cells were washed in a cold phosphate buffer (“Phosphate Buffer Serum”: PBS) then lysed by sonication at 4° C. in 50 μl of a solution containing 0.9% of NaCl and 0.2% of Triton X-100.
By way of comparison, the activity of a known inhibitor of the Hedgehog protein signaling pathway, CURIS 61 414, as described, for example, by Frank-Kamenetsky M. et al. (J. Biol., 2002, 1, 10), was tested under the same conditions as those used to test the various compounds with formula (I) as claimed in the invention.
The alkaline phosphatase activity measurement in the lysates obtained was then carried out using the method described by Pepinsky et al. (J. Biol. Chem., 1998, 273, 14037). After adding 100 μl of reaction buffer (200 mM Tris-HCl; pH 10.5; 0.4 M of 2-amino-2-methylpropanol and 8 mM of MgCl2) and 50 μl of substrate (4 mM of disodium p-nitrophenyl phosphate), the lysates were incubated at 37° C. for 30-60 min, then the optical density was read at a wavelength of 415 nm.

mouse Smoothened protein = biological target: T1, mouse Smoothened protein (Mus musculus, UniProt P56726); assay: Competitive Bodipycyclopamine binding on HEK293 cells transfected with mouse Smoothened; details: for IC50: 5 nM Bodipycyclopamine, 2 hours at 37° C., HEK293 cells expressing mouse Smoothened; for Bodipycyclopamine binding competition: fluorescence microscopy, FIGS. 2 and 3
T1 construct: expressed in transfected cells; host or cells: HEK293
Protocol: HEK293 cells were plated in a quantity of 70 000 cells per well onto glass cover slips treated with poly-D-lysine into 24-well plates, and transfected the next day with 0.25 μg of plasmid encoding the mouse Smoothened protein (Masdeu C., Faure H., Coulombe J., Schoenfelder A., Mann A., Brabet I., Pin J-P., Traiffort E. and Ruat M., Identification and characterization of Hedgehog modulator properties after functional coupling of Smoothened to G15, Biochem Biophys Res. Commun., 2006, 349:471-479), using 0.7 μL of fugene6 (Roche Biochemicals). After 48 hours, the culture medium was eliminated, the cells were rinsed once with 1 mL of a phosphate buffer solution, PBS (Phosphate Buffered Saline), then fixed for 20 minutes in the presence of an iced 4% solution of paraformaldehyde (PFA) and 0.12M glucose in a PBS phosphate buffer solution. The cells were then rinsed twice and washed twice for 5 minutes with 1 mL of a phosphate buffer solution and 0.5% of fetal calf serum (PBS-FCS). Next, 1 mL of Bodipycyclopamine (BC) (Chen, J. K., Taipale, J., Cooper, M. K., and Beachy, P. A., Genes Dev., 2002, 16 (21), 2743-2748), diluted to 5 nM in PBS-FCS, in the presence of compounds 31 and 38 of the invention, was applied to the cells for 2 hours at 37° C. The cells were then washed twice for 5 minutes with 1 mL of PBS-FCS and brought into the presence of 1 mL of a PBS 1× phosphate buffer solution. Finally, the cover slips were mounted on a glass slide in the presence of Vectashield containing DAPI (4′,6′-DiAmidino-2-Phenyl Indole) to stain the cell nuclei (Vector).
In FIG. 2, the intensity of the fluorescence was analyzed using Simple PCI 6.2 software (Hamamatsu Corporation), then related to the surface area of the nuclei present in the photograph.

[2] = Mus musculus, percentage of alkaline phosphatase activity induced by SAG
[3] = Mus musculus, C3H 10T1/2, after induction by 0.1 μM SAG

T1 sequence (P56726 33-793): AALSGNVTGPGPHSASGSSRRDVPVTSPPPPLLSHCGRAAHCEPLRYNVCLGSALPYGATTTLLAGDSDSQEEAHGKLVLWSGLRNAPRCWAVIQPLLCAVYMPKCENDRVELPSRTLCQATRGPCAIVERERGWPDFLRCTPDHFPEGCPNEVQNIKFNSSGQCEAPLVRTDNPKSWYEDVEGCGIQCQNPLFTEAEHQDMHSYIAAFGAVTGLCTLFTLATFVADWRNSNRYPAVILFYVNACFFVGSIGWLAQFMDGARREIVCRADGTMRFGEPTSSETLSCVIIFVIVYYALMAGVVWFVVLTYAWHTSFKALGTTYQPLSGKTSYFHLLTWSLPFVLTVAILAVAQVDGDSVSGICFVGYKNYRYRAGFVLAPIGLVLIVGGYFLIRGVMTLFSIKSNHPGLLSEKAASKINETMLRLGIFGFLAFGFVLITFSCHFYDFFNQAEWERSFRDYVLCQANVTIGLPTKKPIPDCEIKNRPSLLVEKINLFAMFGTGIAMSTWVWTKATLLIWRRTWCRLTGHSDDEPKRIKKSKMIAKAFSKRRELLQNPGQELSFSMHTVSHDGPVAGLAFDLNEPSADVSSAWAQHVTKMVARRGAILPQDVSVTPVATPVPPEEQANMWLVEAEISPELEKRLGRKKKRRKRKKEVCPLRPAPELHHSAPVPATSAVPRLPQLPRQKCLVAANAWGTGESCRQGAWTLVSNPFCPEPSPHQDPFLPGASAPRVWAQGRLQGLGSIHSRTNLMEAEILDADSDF

Row | Compound | IC50 [1, 3] [µM] | inhibition at 10 µM [1, 2] [%] | also measured
1 | COc1ccc(NC(=O)c2cc(NC(=S)NC(=O)c3cc(OC)c(OC)c(OC)c3)ccc2Cl)cc1 [Compound 40] | – | 20 to 80 | –
2 | COc1cc(C(=O)NC(=S)Nc2cc(Br)cc(C(=O)Nc3ccccc3)c2)cc(OC)c1OC [Compound 41] | – | 20 to 80 | –
3 | COc1cc(C(=O)NC(=S)Nc2ccc(Cl)c(C(=O)Nc3ccc(Cl)cc3)c2)cc(OC)c1OC [Compound 43] | – | > 80 | –
4 | COc1cc(C(=O)NC(=O)Nc2ccc(Cl)c(C(=O)Nc3ccccc3)c2)cc(OC)c1OC [Compound 44] | – | 20 to 80 | –
5 | COc1cc(C(=O)NC(=S)Nc2cccc(NC(=O)c3ccc(-c4ccccc4)cc3)c2C)cc(OC)c1OC [Compound 46] | – | 5 to 20 | –
6 | COc1cc(C(=O)NC(=O)Nc2cccc(NC(=O)c3ccc(Cl)cc3)c2)cc(OC)c1OC [Compound 47, N-[[[-3-(4-chloro-benzoylamino)phenyl]amino]oxomethyl]-3,4,5-methoxy-benzamide] | – | > 80 | –
7 | COc1ccc(C(=O)NC(=O)Nc2cccc(NC(=O)c3ccccc3)c2)cc1 [Compound 49, N-[[[-3-(benzoylamino)phenyl]amino]oxomethyl]-4-methoxy-benzamide] | – | 20 to 80 | –
8 | O=C(NC(=O)c1ccccc1)Nc1cccc(NC(=O)c2ccccc2)c1 [Compound 50, N-[[[-3-(benzoylamino)phenyl]amino]oxomethyl]-benzamide] | – | > 80 | –
9 | COc1cc(C(=O)NC(=S)Nc2ccc(C)c(-c3nc4ccccc4[nH]3)c2)cc(OC)c1OC [Compound 56, N-(3-(1H-benzo[d]imidazol-2-yl)-4-methylphenylcarbamothioyl)-3,4,5-trimethoxybenzamide] | – | 20 to 80 | –
10 | COc1cc(C(=O)NC(=O)Nc2cccc(NC(=O)Nc3ccc(-c4ccccc4)cc3)c2)cc(OC)c1OC [Compound 59, N-(3-(3-biphenyl-4-ylureido)phenylcarbamoyl)-3,4,5-trimethoxybenzamide] | – | > 80 | –
11 | CC1=C2C[C@H]3[C@@H](CC=C4C[C@@H](O)CC[C@@]43C)[C@@H]2CC[C@]12O[C@@H]1C[C@H](C)CN[C@H]1[C@H]2C [Cyclopamine, reference compound] | – | – | Bodipycyclopamine binding competition (mouse Smoothened protein): binding competition was observed
12 | N-[[[3-(benzoylamino)phenyl]amino]thioxomethyl]-3,4,5-methoxy-benzamide [Compound 38] | – | – | % INHIBITION of alkaline phosphatase activity ([1]; 10 μM test compound, percentage of alkaline phosphatase activity induced by SAG): A (the letter A corresponds to an inhibition of more than 80%); IC50 ([1]; after induction by 0.1 μM SAG): 0.01 to 1 µM; IC50 (mouse Smoothened protein): 500 nM; Bodipycyclopamine binding competition (mouse Smoothened protein): binding competition was observed

Now from value to compound, other results behind:

Row | IC50 [1, 3] [µM] | Compound | inhibition at 10 µM [1, 2] [%] | also measured
13 | 1 to 3 | COc1ccc(C(=O)Nc2cccc(NC(=S)NC(=O)c3cc(OC)c(OC)c(OC)c3)c2)cc1 [Compound 1, N-[[[3-(4-methoxy-benzoylamino)phenyl]amino]thioxomethyl]-3,4,5-methoxy-benzamide] | > 80 | melting point: 147 °C
14 | 0.01 to 1 | COc1cc(C(=O)NC(=O)Nc2cccc(NC(=O)c3ccccc3)c2)cc(OC)c1OC [Compound 31, N-[[[3-(benzoylamino)phenyl]amino]oxomethyl]-3,4,5-methoxy-benzamide] | > 80 | IC50 (mouse Smoothened protein): 120 nM; Bodipycyclopamine binding competition (mouse Smoothened protein): binding competition was observed
15 | 1 to 3 | COc1cc(C(=O)NC(=S)Nc2ccc(Cl)c(C(=O)Nc3ccc(N(C)C)cc3)c2)cc(OC)c1OC [Compound 39] | > 80 | –
16 | 0.01 to 1 | COc1cc(C(=O)NC(=O)Nc2cccc(NC(=O)c3ccc(-c4ccccc4)cc3)c2C)cc(OC)c1OC [Compound 45] | > 80 | –
17 | 1 to 3 | COc1cc(OC)c(C(=O)NC(=O)Nc2cccc(NC(=O)c3ccccc3)c2)cc1OC [Compound 48, N-[[[-3-(benzoylamino)phenyl]amino]oxomethyl]-2,4,5-methoxy-benzamide] | 20 to 80 | –
18 | 1 to 3 | COc1cc(C(=O)NC(=S)Nc2cccc(NC(=O)Nc3ccccc3)c2)cc(OC)c1OC [Compound 51, 3,4,5-trimethoxy-N-(3-(3-phenylureido)phenylcarbamothioyl)-benzamide] | > 80 | –
19 | 0.01 to 1 | COc1cc(C(=O)NC(=S)Nc2cccc(NC(=O)Nc3ccc(-c4ccccc4)cc3)c2)cc(OC)c1OC [Compound 52, N-(3-(3-biphenyl-4-ylureido)phenylcarbamothioyl)-3,4,5-trimethoxybenzamide] | > 80 | –
20 | 0.01 to 1 | COc1cc(C(=O)NC(=O)Nc2cccc(-c3cc4ccccc4[nH]3)c2)cc(OC)c1OC [Compound 53, N-(3-(1H-indol-2-yl)phenylcarbamoyl)-3,4,5-trimethoxybenzamide] | > 80 | –
21 | 0.01 to 1 | COc1cc(C(=O)NC(=S)Nc2cccc(-c3cn4ccccc4n3)c2)cc(OC)c1OC [Compound 55, N-(3-(imidazo[1,2-a]pyridin-2-yl)phenylcarbamothioyl)-3,4,5-trimethoxybenzamide] | > 80 | –
22 | 1 to 3 | COc1cc(C(=O)NC(=S)Nc2cccc(-n3ccc4ccccc43)c2)cc(OC)c1OC [Compound 57, N-(3-(1H-indol-1-yl)phenylcarbamothioyl)-3,4,5-trimethoxybenzamide] | > 80 | –
23 | 1 to 3 | COc1cc(C(=O)NC(=S)Nc2cccc(-c3cn4ccsc4n3)c2)cc(OC)c1OC [Compound 58, N-(3-(imidazo[2,1-b]thiazol-6-yl)phenylcarbamothioyl)-3,4,5-trimethoxybenzamide] | > 80 | –
